The subject of one assay is FcγRIIa. Briefly: Phosphorylation of FcγRIIa during platelet activation (immunoprecipitation, Western blot with anti-phosphotyrosine). Type of assay: cell-based, human. On the procedure:
Whole platelet lysates were prepared by the addition of an equal volume of 2× lysis buffer (2% Nonidet P-40 1, 300 mM NaCl, 50 mM Tris, 2 mM Na3VO4, halt protease and phosphatase inhibitor cocktail [Pierce Biochemicals], ph 7.3) in an ice bath for 30 min. Lysates to be used for immunoprecipitation were pre-cleared of antibodies by the addition of protein G Dynabeads (Invitrogen, Carlsbad, Calif.).
Immunoprecipitation was performed overnight at 4° C. with the use of goat anti-CD32A/C (Santa Cruz Biotechnology, Santa Cruz, Calif.) or a mouse anti-phosphotyrosine conjugated with magnetic beads (4G10, Millipore, Billerica, Mass.). When anti-CD32A/C was used, antigen-antibody complexes were isolated with the use of protein G-coated magnetic beads (Dynabeads, Invitrogen, Carlsbad, Calif.) for 3 hours. Beads with antigen-antibody complexes were washed once with 0.5× lysis buffer and twice with phosphate buffered saline. Proteins were separated from beads in sample buffer before electrophoresis and wet transfer to Immobilon FL membranes (Millipore, Billerica, Mass.). […] Bands were detected with the use of use of a Li-Cor Odyssey Infrared Imaging system (Li-Cor Biosciences, Lincoln, Nebr.) or chemiluminescence (Amersham/General Electric Healthcare, Piscataway, N.J.).
In general terms: A western blot detects proteins with antibodies after separation by electrophoresis.

The test system of assay [1] is platelets. The assay is described as follows: Platelet activation in whole blood by flow cytometry, binding of PAC-1 (activated GP IIb-IIIa). The assay is classed as cell-based, human. The text has this:
Volumes used minimize aggregation of platelets during activation. Activation of platelets was identified by anti-CD62-phycoerythrin (PE, identifies P-selectin) and fluorescein isothiocyanate (FITC)-conjugated PAC-1 (binds to activated GP IIb-IIIa) as described (Serrano F A, et al., Thromb J 2007; 5:7; Schneider D J, et al., Circulation 96:2877-83, 1997; Kabbani S S, et al., Circulation 2001; 104:181-6; Aggarwal A, et al., Am J Kidney Dis 2002; 40:315-22; and Schneider D J, et al., Diabetes Care, 32:944-9, 2009). Platelet expression of FcγRIIa was quantified with the use of anti-CD32-PE. For both assays (activation and quantification of expression of FcγRIIa) PE-Cy5-anti-CD42b was used as an activation independent marker of platelets. […] Fluorochrome labeled antibodies were from Becton Dickinson (San Jose, Calif.). […] Louis, Mo.), and ADP from BioData (Horsham, Pa.). […] J. et al., J Exp Med 1986; 163:826-836). The SRC kinase antagonist PP2 (EMD Biosciences) was dissolved in dimethylsulfoxide (DMSO, Sigma). Tirofiban was obtained from Merck Research Laboratories (Whitehouse Station, N.J.). […] Activation of platelets is reported as the percentage of platelets that bound an activation dependent ligand, a result that we have shown correlates directly with mean fluorescence intensity (Schneider D J, et al., Thromb Haemost 2001; 85:309-13).
Background: A flow cytometer gives signals particle by particle.

Assay [2] relates to platelets. The assay is described as follows: cells. The note with it: for fold induction at 0.5 µg/mL: Homo sapiens, Platelet. Type of assay: cell-based, human. The text has this:
Volumes used minimize aggregation of platelets during activation. Activation of platelets was identified by anti-CD62-phycoerythrin (PE, identifies P-selectin) and fluorescein isothiocyanate (FITC)-conjugated PAC-1 (binds to activated GP IIb-IIIa) as described (Serrano F A, et al., Thromb J 2007; 5:7; Schneider D J, et al., Circulation 96:2877-83, 1997; Kabbani S S, et al., Circulation 2001; 104:181-6; Aggarwal A, et al., Am J Kidney Dis 2002; 40:315-22; and Schneider D J, et al., Diabetes Care, 32:944-9, 2009). Platelet expression of FcγRIIa was quantified with the use of anti-CD32-PE. For both assays (activation and quantification of expression of FcγRIIa) PE-Cy5-anti-CD42b was used as an activation independent marker of platelets. […] Fluorochrome labeled antibodies were from Becton Dickinson (San Jose, Calif.). […] Louis, Mo.), and ADP from BioData (Horsham, Pa.). […] J. et al., J Exp Med 1986; 163:826-836). The SRC kinase antagonist PP2 (EMD Biosciences) was dissolved in dimethylsulfoxide (DMSO, Sigma). Tirofiban was obtained from Merck Research Laboratories (Whitehouse Station, N.J.). The reaction mixture was incubated for 15 minutes at room temperature without stirring before platelets were fixed and erythrocytes lysed by addition of Optilyse-C solution (Beckman Coulter). Flow cytometric analysis was performed with the use of a Beckman Coulter FC500 (Miami, Fla.). Platelets were identified on the basis of size (forward and side scatter) and the binding of an activation independent ligand (anti-CD42b). As described, control samples to define a threshold for activation-dependent binding used non-immune IgG (Serrano F A, et al., Thromb J 2007; 5:7; Schneider D J, et al., Circulation 96:2877-83, 1997; Kabbani S S, et al., Circulation 2001; 104:181-6; Aggarwal A, et al., Am J Kidney Dis 2002; 40:315-22; and Schneider D J, et al., Diabetes Care, 32:944-9, 2009). Activation of platelets is reported as the percentage of platelets that bound an activation dependent ligand, a result that we have shown correlates directly with mean fluorescence intensity (Schneider D J, et al., Thromb Haemost 2001; 85:309-13).

Assay [3] concerns human stem cell derived Megakaryocytes. The assay is described as follows: Expression of FcγRIIa by human stem cell derived megakaryocytes. The assay is classed as cell-based. The note with it: IFNγ treatment; FIG. 11.
For a further assay, the system named is Megakaryocyte cell line. Briefly: Expression of FcγRIIa by a megakaryocyte cell line. Type of assay: cell-based. The note with it: IFNγ treatment; FIG. 10.

Entries after “also recorded” stand apart in the source; their conditions may differ. Like-named read-outs stand apart in the source and are kept apart here.

As to `Nc1ncnc2c1ncn2[C@@H]1O[C@H](COP(=O)(O)OP(=O)(O)O)[C@@H](O)[C@H]1O` [ADP, adenosine diphosphate], the “time after exposure at which phosphorylation of FcγRIIa was greatest” value with FcγRIIa (platelets from healthy subjects, thrombin 50 nM, convulxin 10 ng/ml, ADP 25 μM, PAF 100 nM) fell in the range of 3 to 5 min.
Consider `CCCCS(=O)(=O)N[C@@H](Cc1ccc(OCCCCC2CCNCC2)cc1)C(=O)O` [tirofiban], for which the “effect of tirofiban on binding of PAC-1 to platelets” value with platelets [1] (tirofiban 0.5 μg/ml) is listed as “blocked completely; also recorded: abolished binding of PAC-1”. Further, the results for the fold induction at 0.5 µg/mL in the assay on platelets [2] (read-out: fold induction of ADP induced platelet activation by added fibrinogen after pretreatment with tirofiban) and in the assay on platelets [2] (read-out: fold induction of ADP-induced platelet activation by added Factor XIII after pretreatment with tirofiban) were 1.2 ± 0.1 and 0.8 ± 0.2, respectively. Moreover, the “effect of tirofiban on platelet activation induced by goat anti-FcγRIIa” value in the assay on platelets [2] (tirofiban 0.5 μg/ml, activator goat anti-FcγRIIa) is reported as “nor did it alter activation”. In addition, the “effect of tirofiban on agonist-induced P-selectin expression” value with platelets [2] (tirofiban 0.5 μg/ml, n=3 subjects, FIG. 5D) is “did not attenuate”.
For the molecule `CC(C)(C)n1nc(-c2ccc(Cl)cc2)c2c(N)ncnc21` [PP2], in the assay on platelets [1] (PP2 20 μM vs vehicle DMSO, whole blood, healthy subjects n=7, FIG. 6A), the “effect of PP2 on agonist-induced platelet activation, PAC-1 binding” value is “inhibited activation induced by each agonist”. The “effect of PP2 on agonist-induced platelet activation, P-selectin expression” value with platelets [2] (PP2 20 μM vs vehicle DMSO, whole blood, healthy subjects n=7, FIG. 6B) is reported as “inhibited activation induced by each agonist”. For the same molecule, the “effect of PP2 on phosphorylation of FcγRIIa during platelet activation” value with FcγRIIa (PP2 20 μM) is on record as “prevented phosphorylation”.
Consider “IFNγ: cytokine that increases FcγRIIa expression by megakaryocytes”, for which the “effect on expression of FcγRIIa by human stem cell derived Megakaryocytes” value in assay [3] is “increases”. Besides, the “effect on expression of FcγRIIa by a Megakaryocyte cell line” value with Megakaryocyte cell line was “increases”.
